According to patent US20210094922A1, “Dyes for Analysis of Soluble Protein Aggregates or Misfolded Protein Oligomers” (The Penn State Research Foundation, priority 2018, published 2021):

Assays:
SOD1-A4V-Halo = SOD1-A4V-Halo (Homo sapiens, UniProt P00441, A5V); experiment: In vitro heat-induced aggregation of SOD1-A4V-Halo conjugates; format: biochemical
From the text: (§1) (B-C) Excitation and emission spectra of 4 (with misfolded oligomers of SOD1-A4V-Halo) and 5 (with insoluble aggregates of SOD1-A4V-Halo).
The inventors installed Halo-tag reactive warhead to 2, resulting in 5.

Htt-110Q-Halo = target: T1, Htt-110Q-Halo (Homo sapiens, UniProt P42858); experiment: Two-color imaging of Htt-110Q-Halo in HEK293T cells; format: cell-based
T1 construct: using the Huntingtin exon 1 protein (Htt) with expansion of a polyglutamine tract within its N-terminal domain; expressed in transfected cells; host or cells: HEK293T
T1 sequence (P42858 with tags, fused parts or gaps): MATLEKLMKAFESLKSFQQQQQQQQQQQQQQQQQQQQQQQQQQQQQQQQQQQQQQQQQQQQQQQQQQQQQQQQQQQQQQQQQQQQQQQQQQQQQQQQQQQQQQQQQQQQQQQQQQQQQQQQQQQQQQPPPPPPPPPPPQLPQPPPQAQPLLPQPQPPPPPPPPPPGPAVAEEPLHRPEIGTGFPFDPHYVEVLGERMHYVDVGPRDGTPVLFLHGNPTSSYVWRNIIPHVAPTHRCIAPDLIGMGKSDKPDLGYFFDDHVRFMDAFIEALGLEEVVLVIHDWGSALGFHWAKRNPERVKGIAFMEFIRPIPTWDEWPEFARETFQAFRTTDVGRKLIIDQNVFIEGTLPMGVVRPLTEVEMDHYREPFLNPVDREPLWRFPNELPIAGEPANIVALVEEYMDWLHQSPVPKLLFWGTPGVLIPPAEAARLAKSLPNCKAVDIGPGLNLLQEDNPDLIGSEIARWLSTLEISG
From the text: as §1
Combination of 4 and 5 enables a two-color imaging strategy to differentiate insoluble aggregates from soluble oligomers. The inventors carried out live cell imaging experiments, wherein 4 or 5 was used to visualize aggregation of POI-Halo fusion proteins in HEK293T cells. […] To this end, the inventors labeled HEK293T cells expressing SOD1-A4V-Halo simultaneously with 4 and 5 (both at 0.5 μM) for 24 h and treated cells with 5 μM MG132 for 8 h. […] The inventors further carried out experiments using Htt-PolyQ with 110 glutamine repeats (Htt-110Q-Halo).

[1] = 4 with misfolded oligomers, 5 with insoluble aggregates of SOD1-A4V-Halo

SOD1-A4V-Halo, sequence (P00441 with tags, fused parts or gaps A5V): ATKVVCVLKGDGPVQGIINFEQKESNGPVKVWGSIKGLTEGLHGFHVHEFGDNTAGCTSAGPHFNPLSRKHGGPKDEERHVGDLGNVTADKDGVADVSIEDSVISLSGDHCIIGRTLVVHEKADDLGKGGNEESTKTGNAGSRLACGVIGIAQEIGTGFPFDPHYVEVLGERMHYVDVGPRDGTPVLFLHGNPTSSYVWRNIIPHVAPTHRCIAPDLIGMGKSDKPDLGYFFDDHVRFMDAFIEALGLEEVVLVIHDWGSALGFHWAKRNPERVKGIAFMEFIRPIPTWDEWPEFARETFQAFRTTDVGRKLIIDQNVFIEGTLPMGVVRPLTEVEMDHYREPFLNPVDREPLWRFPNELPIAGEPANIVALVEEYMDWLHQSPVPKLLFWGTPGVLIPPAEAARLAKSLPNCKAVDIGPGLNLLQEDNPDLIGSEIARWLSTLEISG

CN(C)c1ccc(/C=C2N=C(/C=C/c3ccc(N(CCO)CCO)cc3)N(CC(=O)N[C@H]3CC[C@H](C(=O)NCCOCCOCCCCCCCl)CC3)C\2=O)cc1 [Compound 4, (1r,4r)-4-(2-((Z)-2-((E)-4-(bis(2-hydroxyethyl)amino)styryl)-4-(4-(dimethylamino)benzylidene)-5-oxo-4,5-dihydro-1H-imidazol-1-yl)acetamido)-N-(2-(2-((6-chlorohexyl)oxy)ethoxy)ethyl)cyclohexanecarboxamide]
Em (SOD1-A4V-Halo; [1]): 600 nm
Ex (SOD1-A4V-Halo; [1]): 530 nm
kinetics of fluorescence increase versus turbidity (SOD1-A4V-Halo; SOD1-A4V-Halo conjugate): faster than that of turbidity
fluorescence of Htt-110Q-Halo inclusions (Htt-110Q-Halo): exhibit fluorescence from both 4 and 5
